The values that follow come from article PMC5878090 (Journal of controlled release : official journal of the …, 2015).

The subject of assay [1] is U87MG cells. Put plainly: Anti-proliferation assay. The class given is cell-based. The settings on record: Homo sapiens, U-87 MG, 72 h, read-out: anti-proliferation IC50.
Assay [2] deals with U87MG cells. Briefly: Cell-cycle analysis. The class given is cell-based, human. The settings on record: 10 µM, 24 h, PI labeling.
Assay [3] concerns U87MG subcutaneous xenografts. Put plainly: Anti-glioblastoma study in subcutaneous U87MG tumor model. The class given is in vivo, Balb/c nude mice. The settings on record: 50 mg/kg oral every 2 days until 9th day, n = 8; saline 8.3-fold.
In assay [4] the target is Integrin αvβ3 (UniProt P06756). Put plainly: SPR. In general terms: In SPR one partner is held on a chip, and binding of the other changes the refractive index at the surface.

pIC50, pKd: −log10 of the molar value.

For the compound `COc1ccc(C2=N[C@@H](c3ccc(Cl)cc3)[C@@H](c3ccc(Cl)cc3)N2C(=O)N2CCNC(=O)C2)c(OC(C)C)c1` [Nutlin-3], the pIC50 in assay [1] was 5.12. Further, the cell-cycle arrest entry in assay [2] was “effective cell-cycle arrest in the G1 and G2 phases”. As to `Cn1nnc2c(C(N)=O)ncn2c1=O` [TMZ, temozolomide], the “tumor size fold increase on day 14 versus start of treatment” value in assay [3] was determined as 0.3 fold. Usually pKd stands for the Kd on a negative log10 scale, so that one unit is a factor of ten. A lower pKd goes with a large Kd. In assay [4], “c(RGDyK)-conjugated poly(ethylene glycol)-block-poly(lactic acid) micelle carrying the sPMI peptide” showed a pKd of 5.39.
